Read-outs that look alike come from different tables or passages of the source.
Legend:
ROCK1 = ROCK1 (Homo sapiens (Human), UniProt Q13464); assay: Z-lyte FRET assay to measure kinase inhibition, ROCK1; type: biochemical; details: for inhibition at 50 µM: read-out: ROCK1 % inhibition @ 50 μM, 50 μM compound; for inhibition at 100 µM: read-out: ROCK1 % inhibition @ 100 μM, 100 μM compound
ROCK2 = ROCK2 (Homo sapiens (Human), UniProt O75116); assay: Z-lyte FRET assay to measure kinase inhibition, ROCK2; type: biochemical
ROCK2, sequence (O75116 whole entry, species assumed): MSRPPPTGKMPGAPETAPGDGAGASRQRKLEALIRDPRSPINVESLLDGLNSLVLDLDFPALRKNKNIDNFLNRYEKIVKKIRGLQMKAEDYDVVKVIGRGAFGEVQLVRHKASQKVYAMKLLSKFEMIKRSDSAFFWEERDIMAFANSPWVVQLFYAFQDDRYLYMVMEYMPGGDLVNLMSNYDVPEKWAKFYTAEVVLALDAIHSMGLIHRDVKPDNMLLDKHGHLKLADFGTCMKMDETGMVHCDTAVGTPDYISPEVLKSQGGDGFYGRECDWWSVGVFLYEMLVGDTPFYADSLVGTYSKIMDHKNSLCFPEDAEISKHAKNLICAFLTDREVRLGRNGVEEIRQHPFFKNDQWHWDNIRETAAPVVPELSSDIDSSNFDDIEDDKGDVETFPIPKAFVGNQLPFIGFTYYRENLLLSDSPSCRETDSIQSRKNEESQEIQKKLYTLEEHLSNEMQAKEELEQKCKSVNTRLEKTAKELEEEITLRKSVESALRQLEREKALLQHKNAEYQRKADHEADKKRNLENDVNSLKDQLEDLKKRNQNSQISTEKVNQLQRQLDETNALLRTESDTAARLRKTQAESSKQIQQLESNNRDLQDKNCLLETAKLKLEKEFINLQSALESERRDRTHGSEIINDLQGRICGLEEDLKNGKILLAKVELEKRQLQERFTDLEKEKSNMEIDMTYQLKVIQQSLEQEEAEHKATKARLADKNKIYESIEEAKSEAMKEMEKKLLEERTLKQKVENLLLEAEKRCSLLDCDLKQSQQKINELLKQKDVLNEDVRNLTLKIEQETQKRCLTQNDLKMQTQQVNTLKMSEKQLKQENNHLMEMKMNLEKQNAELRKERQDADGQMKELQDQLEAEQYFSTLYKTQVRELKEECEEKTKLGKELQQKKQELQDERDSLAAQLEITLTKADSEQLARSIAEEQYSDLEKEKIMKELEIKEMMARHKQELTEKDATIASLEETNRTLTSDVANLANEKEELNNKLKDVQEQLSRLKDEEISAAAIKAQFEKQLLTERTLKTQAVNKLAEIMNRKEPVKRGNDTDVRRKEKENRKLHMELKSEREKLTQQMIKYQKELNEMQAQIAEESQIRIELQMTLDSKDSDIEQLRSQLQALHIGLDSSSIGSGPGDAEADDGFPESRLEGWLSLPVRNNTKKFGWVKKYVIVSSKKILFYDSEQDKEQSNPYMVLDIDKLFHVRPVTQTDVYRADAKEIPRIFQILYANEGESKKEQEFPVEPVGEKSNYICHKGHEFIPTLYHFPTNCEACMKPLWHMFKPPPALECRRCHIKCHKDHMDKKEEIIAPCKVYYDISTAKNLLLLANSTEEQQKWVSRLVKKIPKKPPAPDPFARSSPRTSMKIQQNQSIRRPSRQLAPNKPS

ROCK1, sequence (Q13464 whole entry): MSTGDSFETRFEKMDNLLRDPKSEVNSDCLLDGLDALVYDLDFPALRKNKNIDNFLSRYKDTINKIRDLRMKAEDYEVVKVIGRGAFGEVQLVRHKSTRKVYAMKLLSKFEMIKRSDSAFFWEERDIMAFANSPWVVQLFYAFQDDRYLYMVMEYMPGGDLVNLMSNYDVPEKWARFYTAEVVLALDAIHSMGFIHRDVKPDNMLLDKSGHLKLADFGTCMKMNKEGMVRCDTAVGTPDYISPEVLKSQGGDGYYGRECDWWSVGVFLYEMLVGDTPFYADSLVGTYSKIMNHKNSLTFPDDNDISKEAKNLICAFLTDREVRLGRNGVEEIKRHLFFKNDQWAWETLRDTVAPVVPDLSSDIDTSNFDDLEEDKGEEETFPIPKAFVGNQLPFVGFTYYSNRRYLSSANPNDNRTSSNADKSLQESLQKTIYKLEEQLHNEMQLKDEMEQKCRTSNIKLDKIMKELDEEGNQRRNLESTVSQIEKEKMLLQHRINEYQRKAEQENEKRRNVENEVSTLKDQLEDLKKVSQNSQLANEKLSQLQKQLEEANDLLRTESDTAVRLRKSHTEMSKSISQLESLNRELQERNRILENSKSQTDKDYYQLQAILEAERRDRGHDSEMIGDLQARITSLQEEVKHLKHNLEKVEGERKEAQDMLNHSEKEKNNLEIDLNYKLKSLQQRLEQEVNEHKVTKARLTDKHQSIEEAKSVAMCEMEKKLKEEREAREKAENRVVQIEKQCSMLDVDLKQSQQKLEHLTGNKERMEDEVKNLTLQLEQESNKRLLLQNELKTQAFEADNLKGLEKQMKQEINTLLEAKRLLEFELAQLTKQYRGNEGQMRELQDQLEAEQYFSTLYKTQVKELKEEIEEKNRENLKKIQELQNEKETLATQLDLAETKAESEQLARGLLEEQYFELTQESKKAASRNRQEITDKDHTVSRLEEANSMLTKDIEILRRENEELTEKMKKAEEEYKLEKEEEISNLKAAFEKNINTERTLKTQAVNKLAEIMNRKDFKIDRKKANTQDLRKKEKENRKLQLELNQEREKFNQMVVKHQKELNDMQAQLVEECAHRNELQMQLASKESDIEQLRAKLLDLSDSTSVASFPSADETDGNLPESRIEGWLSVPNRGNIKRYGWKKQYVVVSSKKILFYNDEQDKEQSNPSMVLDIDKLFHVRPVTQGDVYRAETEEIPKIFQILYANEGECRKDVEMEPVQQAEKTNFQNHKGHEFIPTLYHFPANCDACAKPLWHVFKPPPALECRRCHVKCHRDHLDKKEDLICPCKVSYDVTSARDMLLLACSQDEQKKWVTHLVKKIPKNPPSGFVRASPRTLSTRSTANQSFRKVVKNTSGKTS

| Structure (SMILES) | inhibition at 50 µM (ROCK1) [%] | IC50 (ROCK2) [µM] | IC50 (ROCK1; read-out: ROCK1 IC50) [µM] | inhibition at 100 µM (ROCK1) [%] | IC50 (ROCK1; NCI sample, screening hit, weak inhibitor, read-out: IC50 (screen of NCI Diversity set, NCI sample)) [µM] |
| --- | --- | --- | --- | --- | --- |
| Nc1nccc(Nc2ccc(S(=O)(=O)Nc3ccnn3-c3ccccc3)cc2)n1 | 1.8 ± 0.8 |  |  |  |  |
| Nc1nccc(Nc2ccc(S(=O)(=O)Nc3nccs3)cc2)n1 | 21 ± 10 |  |  |  |  |
| Nc1nccc(Nc2ccc(S(=O)(=O)Nc3ccccn3)cc2)n1 | 2.8 ± 2.3 |  |  |  |  |
| Nc1nccc(Nc2ccc(S(=O)(=O)N3CCN(c4cccc(C(F)(F)F)c4)CC3)cc2)n1 | -0.3 ± 0.7 |  |  |  |  |
| CC(=O)NS(=O)(=O)c1ccc(Nc2ccnc(N)n2)cc1 | 9 ± 1.5 |  |  |  |  |
| Nc1nccc(Nc2ccc(S(=O)(=O)NC(=O)c3ccccc3)cc2)n1 | 2.1 ± 1.9 |  |  |  |  |
| NS(=O)(=O)c1ccc(Nc2ncnc3nc[nH]c23)cc1 | 54 ± 4 |  | 42.7 ± 0.9 |  |  |
| Nc1nc(Nc2ccc(S(N)(=O)=O)cc2)c2[nH]cnc2n1 | 9 ± 2 |  |  |  |  |
| Nc1nccc(Nc2ccc(S(=O)(=O)Nc3ccccc3)cc2)n1 | 46 ± 4 |  | > 100 |  |  |
| Cc1cc(Nc2cccc(S(N)(=O)=O)c2)nc(N)n1 | 0.8 ± 1.2 |  |  |  |  |
| CC(=O)Nc1cccc(Nc2ccnc(N)n2)c1 | 42 ± 6 |  |  |  |  |
| CC(=O)N1CCc2ccc(Nc3ccnc(N)n3)cc21 | 10 ± 12 |  |  |  |  |
| Nc1nccc(Nc2cc(S(N)(=O)=O)ccc2O)n1 | 36 ± 5 |  |  |  |  |
| COc1cc(NC(C)=O)ccc1Nc1ccnc(N)n1 | 2 ± 1 |  |  |  |  |
| Nc1nccc(Nc2ccc(CC(=O)O)cc2)n1 | 2 ± 1 |  |  |  |  |
| CS(=O)(=O)c1ccc(Nc2ccnc(N)n2)cc1 | 38 ± 1 |  |  |  |  |
| Nc1nccc(Nc2ccc3[nH]ccc3c2)n1 | 37 ± 1 |  |  |  |  |
| Nc1nccc(Nc2ccc3cc[nH]c3c2)n1 | 23 ± 1 |  |  |  |  |
| CCc1ccc(Nc2ccnc(N)n2)cc1 | 36 ± 6 |  |  |  |  |
| CCOc1ccc(Nc2ccnc(N)n2)cc1 | 31 ± 4 |  |  |  |  |
| Nc1nccc(Oc2ccc(S(N)(=O)=O)cc2)n1 | -0.3 ± 1 |  |  |  |  |
| NC(=O)c1ccc(Oc2ccnc(N)n2)cc1 | 2 ± 1 |  |  |  |  |

| Structure (SMILES) | inhibition at 50 µM (ROCK1) [%] | IC50 (ROCK2) [µM] | IC50 (ROCK1; read-out: ROCK1 IC50) [µM] | inhibition at 100 µM (ROCK1) [%] | IC50 (ROCK1; NCI sample, screening hit, weak inhibitor, read-out: IC50 (screen of NCI Diversity set, NCI sample)) [µM] |
| --- | --- | --- | --- | --- | --- |
| CC1Cc2cc([N+](=O)[O-])ccc2N1c1ccnc(N)n1 (stereo not shown) | 98 ± 2 | 0.4 ± 0.1 | 0.5 ± 0.1 |  |  |
| CC1Cc2cc(Cl)ccc2N1c1ccnc(N)n1 (stereo not shown) | 87 ± 10 | 0.5 ± 0.03 | 1.2 ± 0.1 |  |  |
| CC1Cc2cc(F)ccc2N1c1ccnc(N)n1 (stereo not shown) | 97 ± 4 | 0.2 ± 0.01 | 0.4 ± 0.1 |  |  |
| Nc1nccc(-n2ccc3ccc(F)cc32)n1 | 86 ± 5 | 1.7 ± 0.1 | 4.9 ± 0.5 |  |  |
| Nc1nccc(-n2ccc3cc(Br)ccc32)n1 | 89 ± 1 | 1.7 ± 0.3 | 2.1 ± 0.3 |  |  |
| Nc1nccc(-n2ccc3ccc(Cl)cc32)n1 | 88 ± 0.3 | 1 ± 0.3 | 1.2 ± 0.2 |  |  |
| COc1ccc2ccn(-c3ccnc(N)n3)c2c1 | 88 ± 2 | 4.9 ± 1 | 4.9 ± 0.5 |  |  |
| COc1ccc2c(ccn2-c2ccnc(N)n2)c1 | 96 ± 3 | 0.25 ± 0.13 | 0.4 ± 0.1 |  |  |
| Cc1ccc2c(ccn2-c2ccnc(N)n2)c1 | 82 ± 5 | 7.1 ± 2.1 | 8.3 ± 0.9 |  |  |
| COc1ccc2c(c1)c(CCNC(C)=O)cn2-c1ccnc(N)n1 | 89 ± 1 | 5.3 ± 1.2 | 4.9 ± 0.8 |  |  |
| CS(=O)(=O)Nc1cccc(CNC(=O)c2cccc3c2ccn3-c2ccnc(N)n2)c1 |  |  | 3.26 ± 0.57 | 100 |  |
| CC(=O)Nc1cccc(CNC(=O)c2cccc3c2ccn3-c2ccnc(N)n2)c1 |  |  | 1.39 ± 0.26 | 117 |  |
| COc1cccc(CNC(=O)c2cccc3c2ccn3-c2ccnc(NC(C)=O)n2)c1 |  |  | 15.4 ± 4.02 | 80 |  |
| CC(=O)N(C)c1cccc(CNC(=O)c2cccc3c2ccn3-c2ccnc(N)n2)c1 |  |  | 40.3 ± 11 | 47 |  |
| COc1cccc(CNS(=O)(=O)c2cccc(Nc3ccnc(N)n3)c2)c1 |  |  | 33.4 ± 8.52 | 70 |  |
| COc1cccc([C@@H](C)NC(=O)c2cccc3c2ccn3-c2ccnc(N)n2)c1 |  |  | 0.213 ± 0.025 | 92 |  |
| COc1cccc([C@H](C)NC(=O)c2cccc3c2ccn3-c2ccnc(N)n2)c1 |  |  | 1.38 ± 0.63 | 97 |  |
| Nc1nccc(Nc2ccccc2Cl)n1 |  |  |  | 39 |  |
| Nc1nccc(Nc2cccc(Cl)c2)n1 |  |  | 5.71 ± 1.44 | 89 |  |
| COc1cccc(CNC(=O)c2cccc3c2ccn3-c2cc(N)nc(N)n2)c1 | 1.26 ± 0.79 |  |  |  |  |
| Nc1nccc(Nc2ccc(S(N)(=O)=O)cc2)n1 [NSC-135784, reference compound] |  |  |  |  | 92 |

Other lines, results leading:

| inhibition at 50 µM (ROCK1) [%] | IC50 (ROCK2) [µM] | IC50 (ROCK1; read-out: ROCK1 IC50) [µM] | inhibition at 100 µM (ROCK1) [%] | IC50 (ROCK1; NCI sample, screening hit, weak inhibitor, read-out: IC50 (screen of NCI Diversity set, NCI sample)) [µM] | Structure (SMILES) |
| --- | --- | --- | --- | --- | --- |
| 47 ± 6 | > 50 | 55.3 ± 13.4 |  |  | Nc1nccc(Nc2ccccc2)n1 |
| 30 ± 1 |  |  |  |  | Nc1nccc(Nc2ccc(S(=O)(=O)NCc3ccccc3)cc2)n1 |
| -0.5 ± 1 |  |  |  |  | Nc1nccc(Oc2ccccc2)n1 |
| -3 ± 1 |  |  |  |  | Clc1nccc(N2CCc3ccccc32)n1 |
| -1 ± 2 |  |  |  |  | c1ccc(Nc2nccc(N3CCc4ccccc43)n2)cc1 |
| 6 ± 1 |  |  |  |  | Nc1nccc(N2CCc3ccccc3C2)n1 |
| 24 ± 2 |  |  |  |  | Nc1nccc(N2CCc3cc([N+](=O)[O-])ccc32)n1 |
| 89 ± 7 | 0.7 ± 0.1 | 1.2 ± 0.2 |  |  | Nc1nccc(N2CCc3cc(F)ccc32)n1 |
| 49 ± 4 | 37.9 ± 2 | 41 ± 2.3 |  |  | CS(=O)(=O)c1ccc2c(c1)CCN2c1ccnc(N)n1 |
| 18 ± 1 |  |  |  |  | Nc1nccc(N2c3ccccc3CC2c2ccccc2)n1 (stereo not shown) |
| 83 ± 5 | 1.2 ± 0.1 | 1.7 ± 0.3 |  |  | Nc1nccc(N2CCc3cc(Br)ccc32)n1 |
| 6 ± 0.4 |  |  |  |  | Nc1nccc(N2c3ccccc3CC2C(=O)O)n1 (stereo not shown) |
| 93 ± 2 | 2.6 ± 0.1 | 4.8 ± 0.5 |  |  | CC1CN(c2ccnc(N)n2)c2ccccc21 (stereo not shown) |
| 73 ± 4 | 10.3 ± 0.9 | 25.8 ± 2.6 |  |  | Nc1nccc(N2CCc3cc(S(N)(=O)=O)ccc32)n1 |
| 89 ± 4 | 1.34 ± 0.09 | 3.7 ± 0.4 |  |  | Nc1nccc(N2CCc3ccc(F)cc32)n1 |
| 80 ± 3 | 0.4 ± 0.1 | 0.8 ± 0.5 |  |  | Nc1nccc(-n2ccc3c(OCc4ccccc4)cccc32)n1 |
| 9 ± 1 |  |  |  |  | Nc1nccc(-n2ccc3c(C(=O)Nc4ccccc4)cccc32)n1 |
| 92 ± 1 | 0.2 ± 0.1 | 1 ± 0.5 |  |  | Nc1nccc(-n2ccc3c(C(=O)NCc4ccccc4)cccc32)n1 |
| 91 ± 1 | 0.5 ± 0.1 | 2 ± 0.5 |  |  | Nc1nccc(-n2ccc3c(C(=O)NCCc4ccccc4)cccc32)n1 |
| 8 ± 3 |  |  |  |  | Nc1nccc(-n2ccc3cc(NC(=O)c4ccccc4)ccc32)n1 |
| 60 ± 2 | 8.4 ± 2 | 54.1 ± 1.1 |  |  | Nc1nccc(-n2ccc3cc(NC(=O)CCc4ccccc4)ccc32)n1 |
| 96 ± 1 | 0.7 ± 0.3 | 2.8 ± 0.3 |  |  | Nc1nccc(-n2ccc3cc(C(=O)NCCc4ccccc4)ccc32)n1 |
| 96 ± 1 | 0.3 ± 0.1 | 2.4 ± 1.6 |  |  | Nc1nccc(-n2ccc3cc(C(=O)NCc4ccccc4)ccc32)n1 |
| 17 ± 2 |  |  |  |  | Nc1nccc(-n2ccc3cc(C(=O)Nc4ccccc4)ccc32)n1 |
| 90 ± 1 | 0.25 ± 0.07 | 0.48 ± 0.099 |  |  | Nc1nccc(N2CCc3c(OCc4ccccc4)cccc32)n1 |

| inhibition at 50 µM (ROCK1) [%] | IC50 (ROCK2) [µM] | IC50 (ROCK1; read-out: ROCK1 IC50) [µM] | inhibition at 100 µM (ROCK1) [%] | IC50 (ROCK1; NCI sample, screening hit, weak inhibitor, read-out: IC50 (screen of NCI Diversity set, NCI sample)) [µM] | Structure (SMILES) |
| --- | --- | --- | --- | --- | --- |
| 76 ± 2 | 16.3 ± 5.5 | 39 ± 6.9 |  |  | Nc1nccc(-n2ccc3cc(OCc4ccccc4)ccc32)n1 |
| 63 ± 5 | 17 ± 1.7 | 53.6 ± 4.1 |  |  | Nc1nccc(-n2ccc3c(OCCc4ccccc4)cccc32)n1 |
| 22 ± 4 |  |  |  |  | Nc1nccc(Nc2ccccc2OCc2ccccc2)n1 |
| 10 ± 2 |  |  |  |  | Nc1nccc(-n2ccc3c(OCc4cccc(Cl)c4F)cccc32)n1 |
| 71 ± 2 | 0.46 ± 0.08 | 1.9 ± 0.42 |  |  | Nc1nccc(-n2ccc3c(OCc4ccc(Cl)cc4)cccc32)n1 |
| 21 ± 14 |  |  |  |  | Nc1nccc(-n2ccc3cc(OCCc4ccccc4)ccc32)n1 |
| 44 ± 9 | 32.7 ± 8.1 | 34.6 ± 8.2 |  |  | Nc1nccc(-n2ccc3c(OCc4cccc(Cl)c4)cccc32)n1 |
| 62 ± 6 | 19 ± 5.9 | 29.1 ± 8.2 |  |  | Nc1nccc(-n2ccc3c(OCc4ccccc4Cl)cccc32)n1 |
| -5 ± 2 |  |  |  |  | Nc1nccc(-n2ccc3ccc(OCc4ccccc4)cc32)n1 |
| -5 ± 0.5 |  |  |  |  | Nc1nccc(-n2ccc3cccc(OCc4ccccc4)c32)n1 |
| 33 ± 4 |  |  |  |  | c1ccc(COc2cccc3c2CCN3c2ncnc3[nH]ccc23)cc1 |
| 39.2 ± 4.19 |  |  |  |  | Nc1nccc(-n2ccc3c(C(=O)NCc4ccccc4Cl)cccc32)n1 |
| 31 ± 10 |  |  |  |  | Nc1nccc(-n2ccc3c(C(=O)NCc4ccc(Cl)cc4)cccc32)n1 |
| 19.4 ± 13.7 |  |  |  |  | COc1ccc(CNC(=O)c2cccc3c2ccn3-c2ccnc(N)n2)cc1 |
|  |  | 13 ± 6.81 | 62 |  | COc1cccc(CC(=O)Nc2cccc3c2ccn3-c2ccnc(N)n2)c1 |
|  |  | 1.77 ± 0.24 | 122 |  | CC[C@@H](NC(=O)c1cccc2c1ccn2-c1ccnc(N)n1)c1ccccc1 |
|  |  | 15.4 ± 6.04 | 91 |  | COC[C@H](NC(=O)c1cccc2c1ccn2-c1ccnc(N)n1)c1ccccc1 |
|  |  | 15.2 ± 3.74 | 89 |  | COc1cccc(CN(C)C(=O)c2cccc3c2ccn3-c2ccnc(N)n2)c1 |
|  |  | 9.31 ± 8.68 | 86 |  | COCCOc1cccc(CNC(=O)c2cccc3c2ccn3-c2ccnc(N)n2)c1 |
|  |  | 3.37 ± 0.53 | 61 |  | CCOc1cccc(CNC(=O)c2cccc3c2ccn3-c2ccnc(N)n2)c1 |
|  |  |  | 7 |  | Nc1nccc(-n2ccc3c(C(=O)NCc4ccccc4-c4ccccc4)cccc32)n1 |
|  |  | 8.31 ± 7.39 | 99 |  | Nc1nccc(-n2ccc3c(C(=O)NCc4cccc(N5CCCC5=O)c4)cccc32)n1 |
|  |  | 7.3 ± 1.29 | 97 |  | COc1cccc(CNC(=O)c2cccc(Nc3ccnc(N)n3)c2)c1 |
|  |  | 9.76 ± 0.86 | 88 |  | CC[C@H](NC(=O)c1cccc2c1ccn2-c1ccnc(N)n1)c1ccccc1 |
